# Results as given in paper PMC10518257 (Nature Cancer, 2023).
# “And” between values parts separate entries of the source, which are not always exact repeats. Equal entries are not always repeated. Where two headings read alike, the source gives them in different places.
# How the values were obtained:
# [1] = test system: Ba/F3 KIF5B–RET^WT allograft tumors; experiment: Subcutaneous allograft efficacy study; type: in vivo, BALB/c nude mice
# [2] = Transcellular transport study, apparent permeability; conditions: pig, LLC-PK1
# Ba/F3 cells = experiment: Growth inhibition assay in Ba/F3 cells (CellTiter-Glo, 72 h); type: cell-based; conditions: Mus musculus
# LUAD-0002AS1 cells = experiment: Growth inhibition (alamarBlue, 96 h); type: cell-based, human; conditions: for raw viability signal (Source Data Fig. 3b-c): LUAD-0002AS1, replicate sets
# TT cells (RET C634W) = experiment: Dose-response western blotting, EC50 for inhibition of protein phosphorylation; type: cell-based; conditions: Homo sapiens
# [3] = test system: Ba/F3 cells expressing KIF5B–RET^WT; experiment: Growth inhibition assay in Ba/F3 cells (CellTiter-Glo, 72 h); type: cell-based
# MMNK1 cholangiocytes = experiment: Growth inhibition (alamarBlue, 96 h); type: cell-based, human; conditions: MMNK, replicates
# ECLC5B cells = experiment: Growth inhibition (alamarBlue, 96 h); type: cell-based, human; conditions: for raw viability signal (Source Data Fig. 3b-c): ECLC5B, replicates
# Ba/F3-RET^M918T = experiment: Growth inhibition assay in Ba/F3 cells (CellTiter-Glo, 72 h); type: cell-based; conditions: Mus musculus, BaF3, 72 h, read-out: GI50 value (Mean ± SD), Ba/F3-RET^M918T, CellTiter-Glo, 72 h
# Ba/F3-CCDC6::RET^S904F = experiment: as above; type: cell-based
# [4] = Animal weight of tumor-bearing mice
# [5] = Homo sapiens, 96 h, read-out: IC50 for Inhibition of Growth (95% CI)
smiles,measurement,setting,value
"COCc1ccc(NC(=O)c2c(C#CCN3CCOCC3)n(C3(C)CC3)c3ncnc(N)c23)cc1 [Vepafestinib, 4-amino-N-[4-(methoxymethyl)phenyl]-7-(1-methylcyclopropyl)-6-[3-(morpholin-4-yl)prop-1-yn-1-yl]-7H-pyrrolo[2,3-d]pyrimidine-5-carboxamide]",Tumor Volume Mean,"[1]; Ba/F3-KIF5B::RET, 50 mg/kg BID, Day 1, Ext. Data Fig. 9a",153.20 mm3
same,Tumor Volume Mean,"[1]; Ba/F3-KIF5B::RET, 50 mg/kg BID, Day 1, Ext. Data Fig. 9b",219.73 mm3
same,Tumor Volume Mean,"[1]; Ba/F3-KIF5B::RET, 50 mg/kg BID, Day 4, Ext. Data Fig. 9a",87.32 mm3
same,Tumor Volume Mean,"[1]; Ba/F3-KIF5B::RET, 50 mg/kg BID, Day 4, Ext. Data Fig. 9b",116.10 mm3
same,Tumor Volume Mean,"[1]; Ba/F3-KIF5B::RET, 50 mg/kg BID, Day 8, Ext. Data Fig. 9a",98.53 mm3
same,Tumor Volume Mean,"[1]; Ba/F3-KIF5B::RET, 50 mg/kg BID, Day 8, Ext. Data Fig. 9b",190.23 mm3
same,Tumor Volume Mean,"[1]; Ba/F3-KIF5B::RET, 50 mg/kg BID, Day 11, Ext. Data Fig. 9a",80.59 mm3
same,Tumor Volume Mean,"[1]; Ba/F3-KIF5B::RET, 50 mg/kg BID, Day 11, Ext. Data Fig. 9b",68.61 mm3
same,Tumor Volume Mean,"[1]; Ba/F3-KIF5B::RET, 50 mg/kg BID, Day 15, Ext. Data Fig. 9a",80.54 mm3
same,Tumor Volume Mean,"[1]; Ba/F3-KIF5B::RET, 50 mg/kg BID, Day 15, Ext. Data Fig. 9b",131.30 mm3
same,Tumor Volume Mean,"[1]; Fig. 7a Ba/F3-KIF5B::RET, 25 mg/kg BID, day 0, in mm³ (unit assumed)",186.18
same,Tumor Volume Mean,"[1]; Fig. 7a Ba/F3-KIF5B::RET, 25 mg/kg BID, day 4, in mm³ (unit assumed)",191.92
same,Tumor Volume Mean,"[1]; Fig. 7a Ba/F3-KIF5B::RET, 25 mg/kg BID, day 8, in mm³ (unit assumed)",184.92
same,Tumor Volume Mean,"[1]; Fig. 7a Ba/F3-KIF5B::RET, 25 mg/kg BID, day 11, in mm³ (unit assumed)",174.38
same,Tumor Volume Mean,"[1]; Fig. 7a Ba/F3-KIF5B::RET, 25 mg/kg BID, day 15, in mm³ (unit assumed)",165.09
same,Tumor Volume Mean,"[1]; Fig. 7a Ba/F3-KIF5B::RET, 50 mg/kg BID, day 0, in mm³ (unit assumed)",187.80
same,Tumor Volume Mean,"[1]; Fig. 7a Ba/F3-KIF5B::RET, 50 mg/kg BID, day 4, in mm³ (unit assumed)",184.99
same,Tumor Volume Mean,"[1]; Fig. 7a Ba/F3-KIF5B::RET, 50 mg/kg BID, day 8, in mm³ (unit assumed)",148.12
same,Tumor Volume Mean,"[1]; Fig. 7a Ba/F3-KIF5B::RET, 50 mg/kg BID, day 11, in mm³ (unit assumed)",106.67
same,Tumor Volume Mean,"[1]; Fig. 7a Ba/F3-KIF5B::RET, 50 mg/kg BID, day 15, in mm³ (unit assumed)",83.29
same,"Papp at 3 h, 1 μM",[2],24 ×10⁻⁶ cm/s
same,GI50,"Ba/F3 cells; BaF3, 72 h, read-out: GI50 value (Mean ± SD), Ba/F3, CellTiter-Glo, 72 h",> 10000 nM
same,GI50,"Ba/F3 cells; BaF3, Ba/F3 (parental), replicate Sets 1-3",> 10000 nM
same,IC50,LUAD-0002AS1 cells; [5],6 nM
same,raw viability signal (Source Data Fig. 3b-c),LUAD-0002AS1 cells; 0.01 nM,16782.2 and 12668.5 and 13089
same,raw viability signal (Source Data Fig. 3b-c),LUAD-0002AS1 cells; 0.1 nM,15237.2 and 13944 and 12774.4
same,raw viability signal (Source Data Fig. 3b-c),LUAD-0002AS1 cells; 1 nM,14596.9 and 11925.3 and 12443
same,raw viability signal (Source Data Fig. 3b-c),LUAD-0002AS1 cells; 10 nM,5820.38 and 4419.86 and 6264.61
same,raw viability signal (Source Data Fig. 3b-c),LUAD-0002AS1 cells; 100 nM,2459.35 and 2506.15 and 3193.42
same,raw viability signal (Source Data Fig. 3b-c),LUAD-0002AS1 cells; 1000 nM,1853.86 and 1731.17 and 3413.68
same,raw viability signal (Source Data Fig. 3b-c),LUAD-0002AS1 cells; 10000 nM,1864.65 and 2510.44 and 3189.66
same,EC50,"TT cells (RET C634W); read-out: EC50 for Inhibition of Protein Phosphorylation (95% CI), AKT S473, 2 h, densitometry",2.4 nM
same,EC50,"TT cells (RET C634W); read-out: EC50 for Inhibition of Protein Phosphorylation (95% CI), ERK1/2 T202/Y204, 2 h, densitometry",0.3 nM
same,EC50,"TT cells (RET C634W); read-out: EC50 for Inhibition of Protein Phosphorylation (95% CI), MEK1/2 S217/S221, 2 h, densitometry",2.1 nM
same,EC50,"TT cells (RET C634W); read-out: EC50 for Inhibition of Protein Phosphorylation (95% CI), P70 RSK T421/S424, 2 h, densitometry",1.1 nM
same,EC50,"TT cells (RET C634W); read-out: EC50 for Inhibition of Protein Phosphorylation (95% CI), RET Y905, 2 h, densitometry",0.3 nM
same,EC50,"TT cells (RET C634W); read-out: EC50 for Inhibition of Protein Phosphorylation (95% CI), S6RP S235/S236, 2 h, densitometry",0.7 nM
same,GI50,"[3]; Ba/3-KIF5B-RET, replicate sets",8.96 nM and 6.78 nM
same,GI50,"[3]; Mus musculus, BaF3, 72 h, read-out: GI50 value (Mean ± SD), Ba/F3-KIF5B::RET, CellTiter-Glo, 72 h",8.27 ± 1.29 nM
same,GI50,"[3]; Mus musculus, BaF3, Ba/3-KIF5B-RET, replicate sets",9.06 nM
same,raw viability signal (Source Data Fig. 3b-c),MMNK1 cholangiocytes; 0.01 nM,15390 and 15865.6
same,raw viability signal (Source Data Fig. 3b-c),MMNK1 cholangiocytes; 0.1 nM,14815.4 and 16483.3
same,raw viability signal (Source Data Fig. 3b-c),MMNK1 cholangiocytes; 1 nM,13973.1 and 15595
same,raw viability signal (Source Data Fig. 3b-c),MMNK1 cholangiocytes; 10 nM,13948.4 and 14647.6
same,raw viability signal (Source Data Fig. 3b-c),MMNK1 cholangiocytes; 100 nM,13576.5 and 14248.6
same,raw viability signal (Source Data Fig. 3b-c),MMNK1 cholangiocytes; 1000 nM,9712.9 and 10190.9
same,raw viability signal (Source Data Fig. 3b-c),MMNK1 cholangiocytes; 10000 nM,13883.8 and 13507.1
same,raw viability signal (Source Data Fig. 3b-c),ECLC5B cells; 0.01 nM,9826.46 and 7916.25 and 19010.8
same,raw viability signal (Source Data Fig. 3b-c),ECLC5B cells; 0.1 nM,10351 and 8612.52 and 20662.3
same,raw viability signal (Source Data Fig. 3b-c),ECLC5B cells; 1 nM,10751.4 and 8385.29 and 18478.3
same,raw viability signal (Source Data Fig. 3b-c),ECLC5B cells; 10 nM,4019.62 and 1873.82 and 8615.92
same,raw viability signal (Source Data Fig. 3b-c),ECLC5B cells; 100 nM,3307.08 and 1329.05 and 4450.27
same,raw viability signal (Source Data Fig. 3b-c),ECLC5B cells; 1000 nM,2927.89 and 1305.13 and 4874.13
same,raw viability signal (Source Data Fig. 3b-c),ECLC5B cells; 10000 nM,1756.2 and 2012.52 and 6114.45
same,IC50,ECLC5B cells; [5],7 nM
same,GI50,Ba/F3-RET^M918T,1.94 ± 0.88 nM
same,GI50,"Ba/F3-CCDC6::RET^S904F; BaF3/CCDC6-RET, read-out: GI50 values, Ba/F3-CCDC6::RET S904F, individual sets (replicate experiments)",28.5 nM
same,GI50,"Ba/F3-CCDC6::RET^S904F; Mus musculus, BaF3, 72 h, read-out: GI50 value (Mean ± SD), Ba/F3-CCDC6::RET^S904F, CellTiter-Glo, 72 h",24.7 ± 5 nM
same,GI50,"Ba/F3-CCDC6::RET^S904F; read-out: GI50 values, Ba/F3-CCDC6::RET S904F, individual sets (replicate experiments)",26.7 nM and 19.1 nM
same,"Animal Weight, Mean","[4]; Ba/F3-KIF5B::RET (Fig 8e), 25 mg/kg BID, day 0",25.1 g
same,"Animal Weight, Mean","[4]; Ba/F3-KIF5B::RET (Fig 8e), 25 mg/kg BID, day 4",27.6 g
same,"Animal Weight, Mean","[4]; Ba/F3-KIF5B::RET (Fig 8e), 25 mg/kg BID, day 8",27.2 g
same,"Animal Weight, Mean","[4]; Ba/F3-KIF5B::RET (Fig 8e), 25 mg/kg BID, day 11",27.1 g
same,"Animal Weight, Mean","[4]; Ba/F3-KIF5B::RET (Fig 8e), 25 mg/kg BID, day 15",27.6 g
same,"Animal Weight, Mean","[4]; Ba/F3-KIF5B::RET (Fig 8e), 50 mg/kg BID, day 0",25.4 g
same,"Animal Weight, Mean","[4]; Ba/F3-KIF5B::RET (Fig 8e), 50 mg/kg BID, day 4",27.8 g
same,"Animal Weight, Mean","[4]; Ba/F3-KIF5B::RET (Fig 8e), 50 mg/kg BID, day 8",26.3 g
same,"Animal Weight, Mean","[4]; Ba/F3-KIF5B::RET (Fig 8e), 50 mg/kg BID, day 11",25.3 g
same,"Animal Weight, Mean","[4]; Ba/F3-KIF5B::RET (Fig 8e), 50 mg/kg BID, day 15",25.9 g
same,"Animal Weight, Mean","[4]; Ba/F3-KIF5B::RET G810R (Fig 8f), Vepafestinib 10 mg/kg BID, day 1",25.86 g
